From patent US9492542B2, “Pharmaceutical composition for the treatment of MCP-1 mediated inflammatory diseases” (priority 2009, dated 2016)
Where two headings read alike, the source gives them in different places.

Columns and labels:
MCP-1 [1] = experiment: Effect on LPS-induced MCP-1 plasma levels in mice (Example 1, ELISA); conditions: calculated versus vehicle group; same doses and schedule as E1
Procedure: MCP-1 plasma levels were measured by commercially available ELISA kit. Drugs were intraperitoneally (ip) administered 30 minutes before LPS injection (50 μg/mouse, ip) to groups of eight mice. […] The percent reduction was calculated versus the vehicle group.

[2] = Effect on proteinuria in human: Urinary Albumin Excretion (UAE) in Type 2 diabetes patients (Example 2); assay type: in vivo; conditions: 8 weeks, bindarit 600 mg twice a day, irbesartan 300 mg once a day
From the text: Irbesartan is a well known angiotensin receptor blockers (ARB). The treatment lasted 8 weeks.

MCP-1 [3] = conditions: calculated versus vehicle group; same doses and schedule as E6
Procedure: MCP-1 plasma levels were measured by commercially available ELISA kit.
Drugs were intraperitoneally (ip) administered 30 minutes before LPS injection (50 μg/mouse, ip) to groups of six mice. At 3 hours following
LPS injection, mice were anesthetized and blood was withdrawn by intracardiac puncture in order to obtain plasma (heparinized samples) to be used to measure MCP-1 levels.
The percent reduction was calculated versus the vehicle group.

Row | SMILES | MCP-1 plasma level % reduction (MCP-1 [1]) [%] | also measured
1 | CCCCc1nc(Cl)c(CO)n1Cc1ccc(-c2ccccc2-c2nn[nH]n2)cc1 [Losartan, losartan] | 13 | 
2 | CCCCC1=NC2(CCCC2)C(=O)N1Cc1ccc(-c2ccccc2-c2nnn[nH]2)cc1 [Placebo + Irbesartan, irbesartan] |  | Patient percentage with a UAE reduction equal to or higher than 25% with respect to basal value [2]: 27.5%
3 | CCOC(=O)[C@H](CCc1ccccc1)N[C@@H](C)C(=O)N1[C@H](C(=O)O)C[C@@H]2CCC[C@@H]21 [Ramipril, ramipril] | 30 | 
4 | CCC(C)(C)C(=O)O[C@H]1C[C@@H](C)C=C2C=C[C@H](C)[C@H](CC[C@@H]3C[C@@H](O)CC(=O)O3)[C@H]21 [Simvastatin, simvastatin] | 7 | 
5 | COc1ccc(CCN(C)CCCC(C#N)(c2ccc(OC)c(OC)c2)C(C)C)cc1OC (centres unmarked) [Verapamil, verapamil] |  | MCP-1 plasma level % reduction (MCP-1 [3]): 26%
